Source: patent publication US6362369B1, “Phthalic acid diamide derivatives fluorine-containing aniline compounds as starting material, agricultural and horticultural insecticides, and a method for application of the insecticides” (Nihon Nohyaku Co., Ltd., priority 1997, dated 2002)

What was measured:
Type in all cases: in vivo
[1] = system: diamondback moth (Plutella xylostella); assay: Insecticidal effect on diamondback moth (Test Example 1); details: for Insecticidal effect, Test Example 1 / Insecticidal effect (Test Example 1), judged from mortality: diamondback moth; for Insecticidal effect (Test Example 1), judged from mortality: judged by the criterion of Test Example 1; for Insecticidal effect on diamondback moth (Test Example 1), judged grade: mortality judged according to the criterion shown in Test Example 1
Procedure, shortened: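 Eggs laid by adult moths on Chinese cabbage seedlings, which were immersed in test solution, air-dried and kept at 25 °C. Hatched insects counted 6 days after immersion and mortality calculated, with effect graded by criterion; triplicate groups of 10 insects.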

[2] = system: common cutworm (Spodoptera Litura); assay: Insecticidal effect on common cutworm (Test Example 2); details: 500 ppm, 25° C.; for Insecticidal effect, Test Example 2: cabbage leaf immersed; for Insecticidal effect, Test Example 2 / Insecticidal effect on common cutworm (Test Example 2), judged grade: eight days after inoculation; for Insecticidal effect (Test Example 2), judged from mortality / Insecticidal effect on common cutworm (Test Example 2), judged grade: cabbage leaf dip; for Insecticidal effect (Test Example 2), judged from mortality: 8 days after inoculation; for Insecticidal effect on common cutworm (Test Example 2), judged grade: second-instar larvae
Procedure, shortened: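 Insecticidal effect was rated from percent mortality of second-instar larvae exposed to air-dried treatment at 25° C for 8 days.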

[3] = system: rice leafroller (Cnaphalocrocis medinalis); assay: Insecticidal effect on rice leafroller (Test Example 3); details: 500 ppm, 25° C., humidity 70%; for Insecticidal effect, Test Example 3: rice lamina immersed; for Insecticidal effect, Test Example 3 / Insecticidal effect on rice leafroller (Test Example 3), judged grade: four days after inoculation; for Insecticidal effect (Test Example 3), judged from mortality / Insecticidal effect on rice leafroller (Test Example 3), judged grade: rice lamina dip; for Insecticidal effect (Test Example 3), judged from mortality: 4 days after inoculation; for Insecticidal effect on rice leafroller (Test Example 3), judged grade: third-instar larvae
Procedure, shortened: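 Groups of 10 third-instar larvae, in triplicate, are placed on air-dried lamina resting on wet filter paper. Incubation runs four days at 25° C with 70% humidity before survivors and dead are tallied.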

[4] = judged by the mortality criterion of Test Example 1
[5] = second-instar larvae of common cutworm
[6] = third-instar larvae of rice leafroller
[7] = mortality judged by criterion of Test Example 1
[8] = common cutworm second-instar larvae
[9] = rice leafroller third-instar larvae

Cc1cc(OC(F)(F)C(F)Cl)ccc1NC(=O)c1ccccc1C(=O)NC(C)C (stereo not drawn) [compound 62]
Insecticidal effect, Test Example 1 [1, 4]: A (100) | Insecticidal effect, Test Example 2 [2, 5]: A (100) | Insecticidal effect, Test Example 3 [3, 6]: A (100)

Cc1cc(OC(F)(F)C(F)F)ccc1NC(=O)c1cccc(I)c1C(=O)NC(C)(C)C [compound 1062]
Insecticidal effect, Test Example 1 [1, 7]: A (100) | Insecticidal effect, Test Example 2 [2, 8]: A (100) | Insecticidal effect, Test Example 3 [3, 9]: A (100)

CCN(CC)C(=O)c1c(Cl)cccc1C(=O)Nc1ccc(OC(F)(F)F)cc1 [compound 1544]
Insecticidal effect (Test Example 1), judged from mortality [1]: A (100) | Insecticidal effect (Test Example 2), judged from mortality [2, 5]: A (100) | Insecticidal effect (Test Example 3), judged from mortality [3, 6]: A (100)

Cc1cc(F)ccc1NC(=O)c1cccc(Br)c1C(=O)NC(C)C [compound 275]
Insecticidal effect, Test Example 1 [1, 4]: A (100) | Insecticidal effect, Test Example 2 [2, 5]: D (79-50) | Insecticidal effect, Test Example 3 [3, 6]: A (100)

Cc1cc(C(F)(F)C(F)(F)F)ccc1NC(=O)c1cccc(I)c1C(=O)N(C)Cc1ccccc1 [compound 1438]
Insecticidal effect, Test Example 1 [1, 7]: A (100) | Insecticidal effect, Test Example 2 [2, 8]: A (100) | Insecticidal effect, Test Example 3 [3, 9]: A (100)

CC(C)NC(=O)c1c(I)cccc1C(=O)Nc1ccc(C(F)(F)C(F)(F)F)cc1Br [compound 1580]
Insecticidal effect (Test Example 1), judged from mortality [1]: A (100) | Insecticidal effect (Test Example 2), judged from mortality [2, 5]: A (100) | Insecticidal effect (Test Example 3), judged from mortality [3, 6]: A (100)

CCC(C)NC(=O)c1c(Cl)cccc1C(=O)Nc1ccc(C(F)(F)C(F)(F)F)cc1Cl (stereo not drawn) [compound 1499]
Insecticidal effect (Test Example 1), judged from mortality [1]: A (100) | Insecticidal effect (Test Example 2), judged from mortality [2, 5]: A (100) | Insecticidal effect (Test Example 3), judged from mortality [3, 6]: A (100)

Cc1cc(C(F)(F)C(F)(F)F)ccc1NC(=O)c1cccc(Cl)c1C(=O)NC(C)(C)C#Cc1cccnc1 [compound 1590]
Insecticidal effect (Test Example 1), judged from mortality [1]: A (100) | Insecticidal effect (Test Example 2), judged from mortality [2, 5]: A (100) | Insecticidal effect (Test Example 3), judged from mortality [3, 6]: A (100)

Cc1cc(OC(F)(F)C(F)F)ccc1NC(=O)c1ccc(I)cc1C(=O)NC(C)C [compound 1248]
Insecticidal effect, Test Example 1 [1, 7]: A (100) | Insecticidal effect, Test Example 2 [2, 8]: A (100) | Insecticidal effect, Test Example 3 [3, 9]: A (100)

CC(C)NC(=O)c1c(C(=O)Nc2ccc(I)cc2)cccc1[N+](=O)[O-] [compound 595]
Insecticidal effect on diamondback moth (Test Example 1), judged grade [1]: A (100) | Insecticidal effect on common cutworm (Test Example 2), judged grade [2]: A (100) | Insecticidal effect on rice leafroller (Test Example 3), judged grade [3]: A (100)

CSc1cccc(C(=O)Nc2ccc(OC(F)F)cc2C)c1C(=O)NC(C)C [compound 783]
Insecticidal effect on diamondback moth (Test Example 1), judged grade [1]: A (100) | Insecticidal effect on common cutworm (Test Example 2), judged grade [2]: A (100) | Insecticidal effect on rice leafroller (Test Example 3), judged grade [3]: A (100)

Cc1cc(OCC(F)(F)C(F)F)ccc1NC(=O)c1c(I)cccc1C(=O)NC(C)C [compound 447]
Insecticidal effect on diamondback moth (Test Example 1), judged grade [1]: A (100) | Insecticidal effect on common cutworm (Test Example 2), judged grade [2]: B (99-90) | Insecticidal effect on rice leafroller (Test Example 3), judged grade [3]: C (89-80)

Cc1cc(C(F)(F)C(F)(F)F)ccc1NC(=O)c1cccc(I)c1C(=O)N[C@@H](C)CO [compound 1482]
Insecticidal effect (Test Example 1), judged from mortality [1]: A (100) | Insecticidal effect (Test Example 2), judged from mortality [2, 5]: A (100) | Insecticidal effect (Test Example 3), judged from mortality [3, 6]: A (100)

CC(C)NC(=O)c1c(F)cccc1C(=O)Nc1ccc(Oc2ccc(C(F)(F)F)cc2Cl)cc1F [compound 901]
Insecticidal effect on diamondback moth (Test Example 1), judged grade [1]: A (100) | Insecticidal effect on common cutworm (Test Example 2), judged grade [2]: D (79-50) | Insecticidal effect on rice leafroller (Test Example 3), judged grade [3]: A (100)

Cc1cc(Cl)ccc1NC(=O)c1cccc(I)c1C(=O)NC(C)C [compound 362]
Insecticidal effect, Test Example 1 [1, 4]: A (100) | Insecticidal effect, Test Example 2 [2, 5]: A (100) | Insecticidal effect, Test Example 3 [3, 6]: A (100)

CC(C)NC(=O)c1c(I)cccc1C(=O)Nc1ccc(C(F)(F)C(F)(F)F)cc1Cl [compound 1386]
Insecticidal effect, Test Example 1 [1, 7]: A (100) | Insecticidal effect, Test Example 2 [2, 8]: A (100) | Insecticidal effect, Test Example 3 [3, 9]: A (100)

CC(C)NC(=O)c1c(I)cccc1C(=O)Nc1ccc(C(F)(F)C(F)(F)C(F)(F)F)cc1Cl [compound 407]
Insecticidal effect, Test Example 1 [1, 4]: A (100) | Insecticidal effect, Test Example 2 [2, 5]: A (100) | Insecticidal effect, Test Example 3 [3, 6]: A (100)

Cc1cc(C(F)(C(F)(F)F)C(F)(F)F)ccc1NC(=O)c1ccc(I)cc1C(=O)NC(C)C [compound 1250]
Insecticidal effect, Test Example 1 [1, 7]: A (100) | Insecticidal effect, Test Example 2 [2, 8]: A (100) | Insecticidal effect, Test Example 3 [3, 9]: A (100)

Cc1cc(OC(F)(F)C(Cl)(Cl)Cl)ccc1NC(=O)c1cccc(Cl)c1C(=O)NC(C)C [compound 129]
Insecticidal effect, Test Example 1 [1, 4]: A (100) | Insecticidal effect, Test Example 2 [2, 5]: A (100) | Insecticidal effect, Test Example 3 [3, 6]: A (100)

CC(C)NC(=O)c1c(I)cccc1C(=O)Nc1ccc2nc(C(F)(F)C(F)(F)C(F)(F)F)oc2c1 [compound 1636]
Insecticidal effect (Test Example 1), judged from mortality [1]: A (100) | Insecticidal effect (Test Example 2), judged from mortality [2, 5]: D (79-50) | Insecticidal effect (Test Example 3), judged from mortality [3, 6]: A (100)

Cc1cc(C(F)(F)C(F)(F)F)ccc1NC(=O)c1cccc(I)c1C(=O)NC(C)C [compound 372, 3-iodo-N^1-(4-pentafluoroethyl-2-methylphenyl)-N^2-isopropyl-phthalic acid diamide]
Insecticidal effect, Test Example 1 [1, 4]: A (100) | Insecticidal effect, Test Example 2 [2, 5]: A (100) | Insecticidal effect, Test Example 3 [3, 6]: A (100)

Cc1cc(OC(F)F)ccc1NC(=O)c1cccc(Cl)c1C(=O)N[C@H](C)c1ccccc1 [compound 1458]
Insecticidal effect (Test Example 1), judged from mortality [1]: A (100) | Insecticidal effect (Test Example 2), judged from mortality [2, 5]: A (100) | Insecticidal effect (Test Example 3), judged from mortality [3, 6]: A (100)

Cc1cc(C(F)(F)C(F)(F)F)ccc1NC(=O)c1cccc(Cl)c1C(=O)NCc1ccccc1F [compound 1468]
Insecticidal effect (Test Example 1), judged from mortality [1]: A (100) | Insecticidal effect (Test Example 2), judged from mortality [2, 5]: C (89-80) | Insecticidal effect (Test Example 3), judged from mortality [3, 6]: A (100)

Cc1cc([S+]([O-])C(F)(F)F)ccc1NC(=O)c1cccc(I)c1C(=O)NC(C)(C)C (stereo not drawn) [compound 1169]
Insecticidal effect, Test Example 1 [1, 7]: A (100) | Insecticidal effect, Test Example 2 [2, 8]: A (100) | Insecticidal effect, Test Example 3 [3, 9]: A (100)

Cc1cc(OC(F)(F)C(F)F)ccc1NC(=O)c1cccc(I)c1C(=O)NC(C)C [compound 390]
Insecticidal effect, Test Example 1 [1, 4]: A (100) | Insecticidal effect, Test Example 2 [2, 5]: A (100) | Insecticidal effect, Test Example 3 [3, 6]: A (100)

Cc1cc(C(F)(F)C(F)(F)F)ccc1NC(=O)c1c(I)cccc1C(=O)NC(C)C [compound 437]
Insecticidal effect, Test Example 1 [1, 4]: A (100) | Insecticidal effect, Test Example 2 [2, 5]: C (89-80) | Insecticidal effect, Test Example 3 [3, 6]: A (100)

CC(C)NC(=O)c1c(C(=O)Nc2ccc(SC(F)F)cc2)cccc1[N+](=O)[O-] [compound 625]
Insecticidal effect on diamondback moth (Test Example 1), judged grade [1]: A (100) | Insecticidal effect on common cutworm (Test Example 2), judged grade [2]: D (79-50) | Insecticidal effect on rice leafroller (Test Example 3), judged grade [3]: D (79-50)

CC(C)NC(=O)c1c(Cl)cccc1C(=O)Nc1ccc(C(F)(F)C(F)(F)F)cc1Cl [compound 1383]
Insecticidal effect, Test Example 1 [1, 7]: A (100) | Insecticidal effect, Test Example 2 [2, 8]: A (100) | Insecticidal effect, Test Example 3 [3, 9]: A (100)

CC(C)NC(=O)c1c(Cl)cccc1C(=O)Nc1ccc2oc(C(F)(F)C(F)(F)C(F)(F)F)nc2c1 [compound 1638]
Insecticidal effect (Test Example 1), judged from mortality [1]: A (100) | Insecticidal effect (Test Example 2), judged from mortality [2, 5]: A (100) | Insecticidal effect (Test Example 3), judged from mortality [3, 6]: A (100)

Cc1cc(C(F)(F)C(F)(F)F)ccc1NC(=O)c1cccc(I)c1C(=O)NCCC(C)C [compound 1015]
Insecticidal effect, Test Example 1 [1, 7]: A (100) | Insecticidal effect, Test Example 2 [2, 8]: D (79-50) | Insecticidal effect, Test Example 3 [3, 9]: A (100)

Cc1cc(C(F)(C(F)(F)F)C(F)(F)F)ccc1NC(=O)c1cccc(C(F)(F)F)c1C(=O)NC(C)C [compound 1207]
Insecticidal effect, Test Example 1 [1, 7]: A (100) | Insecticidal effect, Test Example 2 [2, 8]: A (100) | Insecticidal effect, Test Example 3 [3, 9]: A (100)

CC(C)NC(=O)c1c(I)cccc1C(=O)Nc1ccc(C(O)(C(F)(F)F)C(F)(F)F)cc1 [compound 1004]
Insecticidal effect, Test Example 1 [1, 7]: A (100) | Insecticidal effect, Test Example 2 [2, 8]: A (100) | Insecticidal effect, Test Example 3 [3, 9]: A (100)

Cc1cc(OCC(F)(F)C(F)F)ccc1NC(=O)c1cccc(I)c1C(=O)NC(C)C [compound 388]
Insecticidal effect, Test Example 1 [1, 4]: A (100) | Insecticidal effect, Test Example 2 [2, 5]: A (100) | Insecticidal effect, Test Example 3 [3, 6]: B (99-90)

CC(C)NC(=O)c1c(C(=O)Nc2ccc(OC(F)(F)F)cc2Br)cccc1[N+](=O)[O-] [compound 705]
Insecticidal effect on diamondback moth (Test Example 1), judged grade [1]: A (100) | Insecticidal effect on common cutworm (Test Example 2), judged grade [2]: D (79-50) | Insecticidal effect on rice leafroller (Test Example 3), judged grade [3]: A (100)

Cc1cc(C(F)(F)C(F)(F)F)ccc1NC(=O)c1cccc(Cl)c1C(=O)NC(C)(C)C#Cc1ccsc1 [compound 1628]
Insecticidal effect (Test Example 1), judged from mortality [1]: A (100) | Insecticidal effect (Test Example 2), judged from mortality [2, 5]: A (100) | Insecticidal effect (Test Example 3), judged from mortality [3, 6]: A (100)
